This note sets out measurements from publication PMC4167698, “Fatty Acid Esters of Phloridzin Induce Apoptosis of Human Liver Cancer Cells through Altered Gene Expression” (PLoS ONE, 2014).

A value given as a limit tells only on which side of the number the result lay.

Series [1] relates to HepG2 cells. As to the kind of experiment: MTS cell proliferation assay, HepG2. The settings on record: Homo sapiens, MTS. The series is classed as cell-based, human. The protocol:
(§1) Cell viability was determined by using the MTS assay. In brief, HepG2 cells (5×10^3 cells/100 µL/well), MDA-MB-231 (5×10^3 cells/100 µL/well), THP-1 (25×10^3/100 µL/well), normal human and rat hepatocytes (1×10^4 cells/100 µL/well) were plated in triplicate, in a 96 well sterile flat bottom tissue culture plates. […] Thereby, cells were exposed to various concentrations (0.1, 1, 10, 25, 50, 75, 100 µM) of each treatment. Controls consist of cells with media containing DMSO (<0.5%), test blank wells contained the test compound in media with no cells and blank wells contained media with no cells. After additional 3, 6, 12, 18 or 24 h, 20 µL of the MTS reagent in combination with the electron coupling agent, phenazine methosulfate were added to the wells and cells were incubated in a humidified incubator for 3 h. Absorbance at 490 nm (OD490) was measured by using a Flurostar Optima microplate reader (BMG Labtech, Cary, NC, USA) to obtain the number of viable cells relative to the control population. Percentage of viability of the test compound treated cells are expressed as percentage compared to control (<0.5% DMSO). […] The selective index (SI) of the fatty acid esters of phloridzin is defined as the ratio of cytotoxicity (EC50 values) on normal HP-F cells to solid cancer HepG2, MDA-MB-231 cells (SI = EC50 on HP-F cells/EC50 on solid cancer cells). Samples with SI values greater than three were considered to have high selectivity towards cancer cells.

Series [2] has as its target T1, human DNA topo IIα (Homo sapiens, UniProt P11388).
T1 construct: purchased TopoGEN, Inc., Columbus, OH, USA
As to the kind of experiment: Topoisomerase IIα catalytic activity (pHOT1 DNA relaxation). To be noted: 100 µM, 4 units enzyme, 37°C 30 min. In kind it is biochemical. The protocol:
The topo IIα catalytic activity was monitored via electrophoresis using topoisomerase II drug screening kit (TopoGEN, Inc., Columbus, OH, USA). Briefly, 20 µL of reaction mixtures contained 0.5 M Tris-HCl, pH 8.0, 1.5 M NaCl, 100 mM MgCl2, 20 mM ATP, 300 µg BSA/mL and 5 mM dithiothreitol. Supercoiled DNA (pHOT1 DNA), supercoiled provided in the kit was determined to be ideal for this assay because it is small and easy to handle and has a large number of topo IIα recognition elements. […] The reaction was terminated by adding 2 µL of 10% sodium dodecyl sulfate (SDS) followed by digestion with 2 µL of proteinase K (50 µg/mL) at 37°C for 15 min to degrade enzyme. After adding 2 µL of loading buffer (0.25% bromophenol blue and 50% glycerol) was added to the mixture, samples were loaded onto 1% agarose gel. Electrophoresis was conducted at 66 V (2 V/cm) for 5 h in TBE buffer using Biorad Electrophoretic Gel System (Bio-Rad, Hercules, CA, USA). Supercoiled DNA (pHOT1 DNA) and relaxed DNA were included in the electrophoresis run as markers for DNA topology. Gels were then stained in 0.5 µg/mL gel red in TBE for 30 min and destained for 15 min in distilled water prior to digital image acquisition using Gel Doc 100 system (Bio-Rad, Hercules, CA, USA).
One unit of topoisomerase II activity was defined as the minimum amount of enzyme required to achieve complete relaxation of […] superhelical pHOT1 DNA in 30 min at 37°C. […] The percent of inhibition was calculated by the following formula: [drawing 1] Where Scontrol is the percent of supercoiled DNA in the control lane (without enzyme and test compounds), S0 is the percent of supercoiled DNA in the lane without test compounds and S is the percent of supercoiled DNA in the lane with test compounds and enzyme.

In series [3] the test system is HepG2 cells. Briefly: DNA fragmentation (apoptotic DNA ladder). To be noted: HepG2, 100 µM, 24 h, agarose gel. In kind it is cell-based, human. The protocol: HepG2 (1×10^5) cells were seeded in 24-well culture plates and were allowed to adhere overnight. […] The plates were re-incubated for another 24 h. DNA fragmentation was detected using ApoTarget Quick Apoptotic DNA Ladder Detection Kit (Invitrogen, Burlington, ON, Canada) according to the manufacturer’s protocol. The principle involves detecting the internucleosomal DNA fragments formed during apoptosis. Briefly, floating dead cells and trypsinized adherent cells were collected and centrifuged at 1,000 rpm for 10 min. After washing with diluted phosphate buffered saline, the cells were lysed with 35 µL TE lysis buffer (a kit component). To the lysate, 5 µL of Enzyme A (a kit component) was added and incubated at 37°C for 10 min. Afterwards, 5 µL of Enzyme B (a kit component) was added, gently mixed and incubated at 50°C for 30 min. The DNA was precipitated with the ammonium acetate and absolute ethanol at −20°C. After centrifugation (10 min at 12,000 rpm) and air drying, the DNA pellet was dissolved in 30 µL of DNA suspension buffer. For detecting the DNA ladder, the extracted DNA samples were run on a 1.2% agarose gel containing 0.5 µg/mL gel red in Tris-Borate-EDTA (TBE) buffer. After electrophoresis, the gel image was captured using Gel Doc 100 system (Bio-Rad, Mississauga, ON, Canada).

In series [4] the test system is HepG2 cells. Briefly: Morphologic observation under inverted phase contrast microscope. The series is classed as cell-based, human. The settings on record: HepG2, 100 µM, 24 h. Here is the method:
After 24 h of treatment, the morphology of HepG2 cells was observed under an inverted phase contrast microscope (Nikon Eclipse E 100, Nikon, Mississauga, ON, Canada) and were captured at 400X magnification using Infinity digital microscopy camera (Lumenera corporation, Ottawa, ON, Canada).

The test system of series [5] is normal human hepatocytes (HP-F). Briefly: MTS cell viability assay, normal human hepatocytes. In kind it is cell-based. To be noted: Hepatocyte, 24 h. Here is the method:
as §1
(Tetrazolium assays rely on reduction of a dye to a coloured formazan, in cell work by metabolically active cells.)

Series [6] concerns HepG2 cells. Briefly: Mitochondrial membrane potential (JC-1). In kind it is cell-based, human. To be noted: HepG2, 100 µM, 24 h. Here is the method: HepG2 cells were seeded in a black walled clear bottom 96-well sterile flat bottom tissue culture plates (BD Biosciences, USA) at a density of 5×10^4 cells/well (100 µL) and incubated in a CO2 incubator for 24 h at 37°C. […] The staining solution JC-1 was prepared with PBS and 5 µM was added to each well. The cells were further incubated in a CO2 incubator at 37°C for 1 h. After washing the plate with PBS twice, the fluorescence was measured using a Fluostar Optima microplate reader (BMG Labtech) at 535 nm for JC-1 monomers and at 590 nm for JC-1 aggregates.

The subject of series [7] is caspase 3 activity of HepG2 cells. As to the kind of experiment: Caspase-3 colorimetric activity assay. In kind it is cell-based, human. To be noted: HepG2, 100 µM, 24 h, compared to DMSO control. The protocol:
The activity of caspase 3 enzyme was measured using caspase 3 colorimetric assay kit purchased from Sigma-Aldrich. […] Cells were lysed and the protein content of cell lysate was quantified by the BCA protein assay (Thermo Fisher Scientific Inc., Ottawa, ON, Canada). Caspase-3 activity was measured in the 200 µg of cell lysate using the caspase-specific peptide substrate, DEVD (Asp-Glu-Val-Asp), conjugated to reporter p-nitroanaline (ρ-NA) molecules.

The subject of series [8] is rat hepatocytes (RTCP10). Briefly: MTS cell viability assay, rat hepatocytes. In kind it is cell-based. To be noted: 100 µM, 24 h. The protocol: as §1, with “Samples with SI values greater than three were considered to have high selectivity towards cancer cells.” left out

T1 sequence (P11388 whole entry): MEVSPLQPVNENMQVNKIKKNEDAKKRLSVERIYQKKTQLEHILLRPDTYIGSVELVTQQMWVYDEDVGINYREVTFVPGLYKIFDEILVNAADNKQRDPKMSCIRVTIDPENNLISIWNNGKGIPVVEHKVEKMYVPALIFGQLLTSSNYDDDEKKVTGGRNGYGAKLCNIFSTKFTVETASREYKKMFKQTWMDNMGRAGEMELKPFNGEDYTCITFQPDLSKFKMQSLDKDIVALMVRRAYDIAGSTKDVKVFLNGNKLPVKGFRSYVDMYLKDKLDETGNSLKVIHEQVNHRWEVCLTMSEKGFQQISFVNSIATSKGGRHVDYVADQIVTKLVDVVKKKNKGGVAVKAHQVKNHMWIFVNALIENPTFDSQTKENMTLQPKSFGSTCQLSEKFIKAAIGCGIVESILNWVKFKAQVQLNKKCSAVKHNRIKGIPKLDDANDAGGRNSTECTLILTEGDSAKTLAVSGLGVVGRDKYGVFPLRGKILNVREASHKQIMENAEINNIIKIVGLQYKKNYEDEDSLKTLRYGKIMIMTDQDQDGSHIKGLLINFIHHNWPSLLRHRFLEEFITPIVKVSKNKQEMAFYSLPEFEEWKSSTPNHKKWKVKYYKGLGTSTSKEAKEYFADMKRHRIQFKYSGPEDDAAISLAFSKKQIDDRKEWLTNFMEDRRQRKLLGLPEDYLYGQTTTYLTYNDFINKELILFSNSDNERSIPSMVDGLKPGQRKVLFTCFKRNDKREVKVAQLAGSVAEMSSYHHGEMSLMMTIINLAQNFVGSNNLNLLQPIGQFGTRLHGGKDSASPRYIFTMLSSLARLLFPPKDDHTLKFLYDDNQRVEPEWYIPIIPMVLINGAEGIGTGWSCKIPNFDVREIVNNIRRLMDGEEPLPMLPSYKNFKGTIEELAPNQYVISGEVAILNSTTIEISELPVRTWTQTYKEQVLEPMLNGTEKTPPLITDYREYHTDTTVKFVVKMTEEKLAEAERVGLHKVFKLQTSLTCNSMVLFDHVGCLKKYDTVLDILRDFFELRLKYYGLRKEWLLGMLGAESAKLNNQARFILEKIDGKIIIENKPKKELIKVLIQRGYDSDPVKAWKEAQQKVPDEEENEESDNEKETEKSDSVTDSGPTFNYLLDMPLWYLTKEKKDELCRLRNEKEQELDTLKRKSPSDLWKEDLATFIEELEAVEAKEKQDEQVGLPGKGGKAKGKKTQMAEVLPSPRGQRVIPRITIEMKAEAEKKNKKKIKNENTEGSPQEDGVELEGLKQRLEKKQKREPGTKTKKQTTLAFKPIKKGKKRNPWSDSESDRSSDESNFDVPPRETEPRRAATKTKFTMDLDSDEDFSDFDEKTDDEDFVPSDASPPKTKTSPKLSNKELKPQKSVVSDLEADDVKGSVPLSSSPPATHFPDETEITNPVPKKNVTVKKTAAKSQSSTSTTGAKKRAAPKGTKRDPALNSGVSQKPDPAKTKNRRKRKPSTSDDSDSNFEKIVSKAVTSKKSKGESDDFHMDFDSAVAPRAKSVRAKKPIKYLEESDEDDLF

For `CNC(=O)c1cc(Oc2ccc(NC(=O)Nc3ccc(Cl)c(C(F)(F)F)c3)cc2)ccn1` [Sorafenib, sorafenib], the EC50 – broadly, the concentration needed to bring the measured effect to its halfway point – in series [1] (HepG2, 3 h) was 67.5 ± 5.2 µM; in series [1] (HepG2, 6 h), 46.7 ± 3.5 µM; in series [1] (HepG2, 12 h) it was 17.3 ± 0.8 µM; in series [1] (HepG2, 18 h), 13.4 ± 0.9 µM; in series [1] (HepG2, 24 h), 10.7 ± 0.5 µM; in series [5], greater than 100 µM. In addition, the “catalytic activity of human DNA topo IIα (pHOT DNA relaxation)” value in series [2] is listed as “inhibited catalytic activity”. In addition, the “internucleosomal DNA fragmentation” value in series [3] is recorded as “clear DNA ladders”. In addition, in series [4], the apoptotic morphological changes result is reported as “morphological changes which are characteristic to apoptosis”. Also, the mitochondrial membrane potential entry in series [6] is “significant (P<0.05) reduction”. The “caspase 3 activity” value in series [7] is recorded as “significant (P<0.001) increase”.
Consider `CCCCCCCCCCCCCCCCCC(=O)OC[C@H]1O[C@@H](Oc2cc(O)cc(O)c2C(=O)CCc2ccc(O)cc2)[C@H](O)[C@@H](O)[C@@H]1O` [Pz-Stearic acid ester, stearic acid ester of Pz], for which, in series [8], the “viability of rat hepatocytes” value is given as “about 50%”.
